According to patent publication US10669283B2, “Compound and pharmacologically acceptable salt thereof” (MEIJI SEIKA PHARMA CO., LTD., priority 2016, dated 2020):

Columns and labels:
[1] = tested on: PDE4; assay: PDE4 inhibition, scintillation proximity assay (SPA); type: biochemical; details: scintillation proximity assay (SPA); evaluated as classes A, B, C; read-out: PDE4 Inhibitory Activity (concentration for the inhibition rate of 50%)
How it was run: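 Scintillation proximity read-out: [2,8-3H]-cAMP hydrolysis by PDE4 ran 120 min at room temperature in Tris-HCl pH 7.4 buffer with 8.3 mM MgCl2, 1.7 mM EGTA and 3 mg/mL BSA. Bead-bound product (YSi-SPA with ZnSO4, 15 min) counted; blank lacks enzyme, control has DMSO only.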

[2] = Hepatic metabolic stability (rat liver microsome method); type: in vitro ADME; details: rat liver microsomes 0.5 mg/mL, test substance 1 μM, NADPH 1 mM, 37° C., 30 minutes
Protocol: Metabolic stability in rat liver microsomes was evaluated by the following method. In 100 mM of potassium phosphate buffer solution (pH 7.4), liver microsomes (concentration at reaction: 0.5 mg/mL) and the test substance (concentration at reaction: 1 μM) were preincubated at 37° C. Five minutes later, 100 mM of potassium phosphate buffer (pH 7.4) solution of NADPH (concentration at reaction: 1 mM) was mixed thereto to start the reaction. After a predetermined time passed, acetonitrile was mixed to the reaction mixture to stop the reaction. Here, the reaction time was 0 and 30 minutes, and drug concentration measurement was performed for each time period using LC-MS. The % remaining value of the test compound was calculated from the value for 0 minutes and the value for 30 minutes, using the calculation formula below: % Remaining=(Value for 30 Minutes/Value for 0 Minutes)×100
The results of measuring the rat liver microsome metabolic Stability (% remaining for 30-minute reaction) for the test compound by the above method were evaluated in accordance with the following evaluated basis; A: a % remaining rate of 75% or more, B: 60% or more and less than 75%, C: 45% or more and less than 60%, and D: less than 45%.

SMILES | IC50 [1] | Residual ratio (% remaining for 30-minute reaction) [2]
FC(F)(F)Oc1c(Cl)cc(-c2cscn2)c2oc(N3CC4CCC(C3)N4)nc12 [Example 8, 2-(3,8-Diazabicyclo[3.2.1]octan-3-yl)-5-chloro-7-(thiazol-4-yl)-4-(trifluoromethoxy)benzo[d]oxazole] | < 0.1 µM | A (a % remaining rate of 75% or more)
Fc1ccc(-c2cc(Cl)c(OC(F)(F)F)c3nc(N4CC5CCC(C4)N5)oc23)nc1 [Example 10, 2-(3,8-Diazabicyclo[3.2.1]octan-3-yl)-5-chloro-7-(5-fluoropyridin-2-yl)-4-(trifluoromethoxy)benzo[d]oxazole] | < 0.1 µM | A (a % remaining rate of 75% or more)
FC(F)(F)c1c(Cl)cc(-c2ccccn2)c2oc(N3CC4CCCC(C3)N4)nc12 [Example 12, 2-(3,9-Diazabicyclo[3.3.1]nonan-3-yl)-5-chloro-7-(pyridin-2-yl)-4-(trifluoromethyl)benzo[d]oxazole] | < 0.1 µM | B (60% or more and less than 75%)
FC(F)(F)c1c(Cl)cc(-n2cccn2)c2oc(N3CC4CC(C3)N4)nc12 [Example 17, 2-(3,6-Diazabicyclo[3.1.1]heptan-3-yl)-5-chloro-7-(1H-pyrazol-1-yl)-4-(trifluoromethyl)benzo[d]oxazole] | < 0.1 µM | B (60% or more and less than 75%)
FC(F)(F)Oc1ccc(-c2nccs2)c2oc(N3CC4CC(C3)N4)nc12 [Example 29, 2-(3,6-Diazabicyclo[3.1.1]heptan-3-yl)-7-(thiazol-2-yl)-4-(trifluoromethoxy)benzo[d]oxazole] | < 0.1 µM | B (60% or more and less than 75%)
OC(c1cc(-c2nccs2)c2oc(N3CC4CCC(C3)N4)nc2c1)C(F)F (stereo not shown) [Example 104, 1-(2-(3,8-Diazabicyclo[3.2.1]octan-3-yl)-7-(thiazol-2-yl)benzo[d]oxazol-5-yl)-2,2-difluoroethan-1-ol] | < 0.1 µM | B (60% or more and less than 75%)
FC(F)(F)C(OCc1nnn[nH]1)c1ccc(-c2nccs2)c2oc(N3CC4CCC(C3)N4)nc12 (stereo not shown) [Example 230, 4-(1-((1H-tetrazol-5-yl)methoxy)-2,2,2-trifluoroethyl)-2-(3,8-diazabicyclo[3.2.1]octan-3-yl)-7-(thiazol-2-yl)benzo[d]oxazole] | < 0.1 µM | A (a % remaining rate of 75% or more)
FC(F)(F)C(OCc1nnn[nH]1)c1ccc(-c2nccs2)c2oc(N3CC4CC(C3)N4)nc12 (stereo not shown) [Example 231, 4-(1-((1H-tetrazol-5-yl)methoxy)-2,2,2-trifluoroethyl)-2-(3,6-diazabicyclo[3.1.1]heptan-3-yl)-7-(thiazol-2-yl)benzo[d]oxazole] | < 0.1 µM | A (a % remaining rate of 75% or more)
CC(C)(O)C(F)(F)Oc1ccc(-c2nccs2)c2oc(N3CC4CC(C3)N4)nc12 [Example 248, 1-((2-(3,6-Diazabicyclo[3.1.1]heptan-3-yl)-7-(thiazol-2-yl)benzo[d]oxazol-4-yl)oxy)-1,1-difluoro-2-methylpropan-2-ol] | < 0.1 µM | A (a % remaining rate of 75% or more)
OCC(F)(F)Oc1ccc(-c2nccs2)c2oc(N3CC4CC(C3)N4)nc12 [Example 249, 2-((2-(3,6-Diazabicyclo[3.1.1]heptan-3-yl)-7-(thiazol-2-yl)benzo[d]oxazol-4-yl)oxy)-2,2-difluoroethan-1-ol] | < 0.1 µM | B (60% or more and less than 75%)
c1csc(-c2ccc(OC3CCOCC3)c3nc(N4CC5CCC(C4)N5)oc23)n1 [Example 254, 2-(3,8-Diazabicyclo[3.2.1]octan-3-yl)-4-((tetrahydro-2H-pyran-4-yl)oxy)-7-(thiazol-2-yl)benzo[d]oxazole] | < 0.1 µM | A (a % remaining rate of 75% or more)
